Results: patent publication US20250170141A1, “MRGPRX2 MODULATORS AND RELATED METHODS OF TREATMENT” (Escient Pharmaceuticals, Inc., priority 2023, published 2025)

Columns and labels:
[1] = target: T1, human MRGPRX2 (Homo sapiens, UniProt Q96LB1); assay: MRGPRX2 activity: IP-One Gq HTRF assay in CHO cells, antagonism versus 0.3 uM Cortistatin-14; format: cell-based; details: versus 0.3 uM Cortistatin-14 agonist, CHO cells expressing human MRGPRX2, read-out: MRGPRX2 Antagonist Activity
T1 construct: expressed in transfected cells; host or cells: CHO cells, stably transfected (G418 and Hygromycin B selection)
T1 sequence (Q96LB1 1-330): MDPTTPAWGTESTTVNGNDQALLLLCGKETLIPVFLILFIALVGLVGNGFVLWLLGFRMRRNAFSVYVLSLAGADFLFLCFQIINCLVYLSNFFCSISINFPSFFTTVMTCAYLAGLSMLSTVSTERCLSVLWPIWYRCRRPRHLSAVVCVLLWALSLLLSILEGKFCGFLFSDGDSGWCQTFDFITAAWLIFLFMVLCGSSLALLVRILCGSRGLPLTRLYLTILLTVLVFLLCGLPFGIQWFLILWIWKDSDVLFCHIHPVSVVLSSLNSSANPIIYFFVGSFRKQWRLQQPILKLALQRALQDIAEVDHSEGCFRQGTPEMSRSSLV
In short: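 Antagonist IC50 was derived from the HTRF IP-1 signal after co-addition of compounds (10 points, top 30 uM, 3-fold steps) and 0.3 μM Cortistatin-14 agonist to human MRGPRX2-expressing CHO cells. Assay buffer contained 50 mM LiCl, pH 8; plates sat 1 h at 37 °C, then 1 h at room temperature.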

[2] = system: Human LAD2 cells; assay: Mast Cell Beta-Hexosaminidase Release Assay (LAD2 cells, 500 nM Cortistatin-14); format: cell-based; details: Homo sapiens, LAD2, Mast Cell Beta-Hexosaminidase Release Assay, read-out: MRGPRX2 Antagonist Activity
Experimental: Human LAD2 cells (NIH) were maintained in an incubator at 37° C. with 5% CO2 and cultured in StemPro-34 serum-free media (Gibco 10639011) supplemented with 2 mM L-glutamine, 100 U/ml penicillin, […] streptomycin and 100 ng/ml SCF (Invitrogen PEP0860), at a concentration of 2-5×10^5 cells/mL, with hemidepletion every 1-2 weeks.
Cells were transferred to SCF-Free medium at 2.5×10^5 cells/mL and kept in an incubator overnight. On the day of the assay, cells were washed twice in Assay Buffer (final concentrations 10 mM HEPES, 137 mM NaCl, 5.6 mM D-glucose, 2.7 mM KCl, 1 mM MgCl, 1.8 mM CalCl2, 0.4 mM Na2HPO4·7H2O, 0.04% BSA, pH=7.4) and plated in a 96-well v-bottom plate at 20,000 cells per well in 80 μL Assay Buffer. Antagonist compounds solubilized at 10 mM in DMSO were diluted in Assay Buffer to 10× final desired concentrations as a 10-point curve (10 μM final top concentration with 1:3 serial dilutions) and 10 μL added per well. Plates were then incubated for 1 hour at 37° C. Agonists were diluted in Assay Buffer to 10× desired concentrations and 10 μL of the appropriate agonist added to each well. The final concentration of Cortistatin-14 (Tocris 3374) used in antagonist assays was 500 nM. Final concentrations of DMSO were kept consistent across the plate. Plates were then incubated in a warm air oven for 30 minutes at 37° C., followed by centrifugation at 4° C. for 5 minutes at 450×g. 50 μL supernatant from each well was then transferred to a 96-well flat bottom plate containing 100 μL substrate solution per well (3.5 mg/mL p-Nitrophenyl-N-acetyl-o-D-glucosaminide (Sigma 487052) in Citrate Buffer containing a final concentration of 40 mM Citric Acid, 20 mM Na2HPO4·7H2O, pH=4.5). To the cell pellets left in the remaining assay buffer, 150 μL 0.1% Triton-X-100 was then added to each well, resuspended by pipetting up and down, and 50 μL cell lysates transferred to a second 96-well flat bottom plate containing 100 μL substrate solution per well. Plates containing transferred supernatant and cell lysates were then incubated in a warm air oven for 90 minutes at 37° C. After incubation, 50 μL of 400 mM Glycine buffer (pH 10.7) was added into each well and the plate was read on a Molecular Devices SpectraMax iD5 plate reader (absorbance at 405 nm with reference filter at 620 nm). After background subtraction, the percentage degranulation (percent beta-hexosaminidase release) was calculated as 100×(supernatant values)/(supernatant+lysate values), followed by analysis using GraphPad Prism software to calculate an IC50 value for each compound.
The activity ranges are denoted as follows: “+++++” denotes antagonist activity <100 nM; “++++” denotes antagonist activity between 100 and 500 nM; “+++” denotes activity between 501 and 1000 nM; “++” denotes activity between 1001 and 2500 nM; and “+” denotes activity >2500 nM.

[3] = Mouse Pharmacokinetic Studies (50 mg/kg oral gavage, plasma LC-MS/MS); format: in vivo; details: male C57BL/6 mice, non-fasted
Experimental: Compounds were formulated in 5% DMSO, 5% Solutol, and 90% PBS without Ca and Mg (pH 7.4) at a concentration of […]. Male C57BL/6 mice (n=6/compound) were administered a 50 mg/kg dose of each compound by oral gavage under a non-fasted condition. Blood samples were collected via the Submandibular vein onto K2-EDTA at 0.5, 1, 2, 4, 8 and 24 hours after dosing, and plasma was prepared and stored at −80° C. until analysis. Plasma sample preparation for analysis was done by protein precipitation using acetonitrile (including Verapamil as an internal standard) followed by centrifugation. Compound concentrations were determined in extracted plasma using LC-MS/MS relative to a 12-point standard curve covering the 1 to 4000 nM range. Non-compartmental analysis using Phoenix WinNonlin was used to estimate pharmacokinetic parameters including area under the curve, clearance, and half-life. The administered dose was confirmed by analysis of residual dosing material by UPLC-UV relative to a single point calibration sample.

[4] = male, C57BL/6, mouse, po, 50 mg/kg

IC50 [1]	Structure (SMILES)	further results
< 100 nM	CC(C)CC(C)c1c(F)ccc2c1NC(NCc1cccc(F)c1)=NS2(=O)=O (stereo not shown) [Compound 22-4, 6-fluoro-3-((3-fluorobenzyl)amino)-5-(4-methylpentan-2-yl)-4H-benzo[e][1,2,4]thiadiazine 1,1-dioxide]	
< 100 nM	CC(c1ccccc1F)c1c(F)ccc2c1NC(NCc1ccc(F)cc1F)=NS2(=O)=O (stereo not shown) [Compound 7-6, 3-((2,4-difluorobenzyl)amino)-6-fluoro-5-(1-(2-fluorophenyl)ethyl)-4H-benzo[e][1,2,4]thiadiazine 1,1-dioxide]	
< 100 nM	O=S1(=O)N=C(NCc2ncccc2F)Nc2c(Cc3ccccc3Cl)cccc21 [Compound 12-2, 5-(2-chlorobenzyl)-3-(((3-fluoropyridin-2-yl)methyl)amino)-4H-benzo[e][1,2,4]thiadiazine 1,1-dioxide]	
< 100 nM	Cc1cccc(C)c1Cc1c(F)ccc2c1NC(NCc1ncccc1F)=NS2(=O)=O [Compound 5-1, 5-(2,6-dimethylbenzyl)-6-fluoro-3-(((3-fluoropyridin-2-yl)methyl)amino)-4H-benzo[e][1,2,4]thiadiazine 1,1-dioxide]	
< 100 nM	Cc1cccc(C(C)c2c(F)ccc3c2NC(NCc2cccc(F)c2)=NS3(=O)=O)c1 (stereo not shown) [Compound 22-12, 6-fluoro-3-((3-fluorobenzyl)amino)-5-(1-(m-tolyl)ethyl)-4H-benzo[e][1,2,4]thiadiazine 1,1-dioxide]	
1000 to 2500 nM	CC(c1ccc(N2CCOCC2)cc1)c1c(F)ccc2c1NC(NCc1cccc(F)c1)=NS2(=O)=O (stereo not shown) [Compound 22-16, 6-fluoro-3-((3-fluorobenzyl)amino)-5-(1-(4-morpholinophenyl)ethyl)-4H-benzo[e][1,2,4]thiadiazine 1,1-dioxide]	
< 100 nM	O=S1(=O)N=C(NCc2ccc(Cl)c(Cl)c2)Nc2c(Cc3ccccc3Cl)cccc21 [Compound 12-12, 5-(2-chlorobenzyl)-3-((3,4-dichlorobenzyl)amino)-4H-benzo[e][1,2,4]thiadiazine 1,1-dioxide]	
1000 to 2500 nM	COc1ccncc1CNC1=NS(=O)(=O)c2cccc(Cc3ccccc3Cl)c2N1 [Compound 12-26, 5-(2-chlorobenzyl)-3-(((4-methoxypyridin-3-yl)methyl)amino)-4H-benzo[e][1,2,4]thiadiazine 1,1-dioxide]	

The next lines start with the compound.

Structure (SMILES)	IC50 [1]	further results
Cc1c(F)cccc1CNC1=NS(=O)(=O)c2ccc(F)c(C(C)c3ccccc3F)c2N1 (single isomer, unassigned) [Compound 10-3A]	< 100 nM	IC50 [2]: 100 to 500 nM; Cmax ([3]; 50 mg/kg): 370 nM; TBC ([3]; 50 mg/kg): 4.3 mL/min/kg; half-life [3, 4]: 2.5 h
C[C@H](c1ccccc1F)c1c(F)c(F)cc2c1NC(NCc1ncccc1F)=NS2(=O)=O [Compound 10-6B, (R)-6,7-difluoro-5-(1-(2-fluorophenyl)ethyl)-3-(((3-fluoropyridin-2-yl)methyl)amino)-4H-benzo[e][1,2,4]thiadiazine 1,1-dioxide]	100 to 500 nM	IC50 [2]: 100 to 500 nM; TBC [3]: 33 mL/min/kg; Cmax [3, 4]: 2700 nM
COc1ccccc1CNC1=NS(=O)(=O)c2cc(F)c(F)c(Cc3ccccc3Cl)c2N1 [Compound 4-9, 5-(2-chlorobenzyl)-6,7-difluoro-3-((2-methoxybenzyl)amino)-4H-benzo[e][1,2,4]thiadiazine 1,1-dioxide]	501 to 1000 nM	
O=S1(=O)N=C(NCc2ncccc2F)Nc2c1ccc(F)c2Oc1cc(Cl)ccc1Cl [Compound 1-38, 5-(2,5-dichlorophenoxy)-6-fluoro-3-(((3-fluoropyridin-2-yl)methyl)amino)-4H-benzo[e][1,2,4]thiadiazine 1,1-dioxide]	< 100 nM	
O=S1(=O)N=C(NCc2ncccc2F)Nc2c(Oc3ccccc3Cl)c(F)cc(F)c21 [Compound 1-1, 5-(2-chlorophenoxy)-6,8-difluoro-3-(((3-fluoropyridin-2-yl)methyl)amino)-4H-benzo[e][1,2,4]thiadiazine 1,1-dioxide]	100 to 500 nM	
O=S1(=O)N=C(NCc2cccc(F)n2)Nc2c1ccc(F)c2Cc1ccccc1Cl [Compound 4-2, 5-(2-chlorobenzyl)-6-fluoro-3-(((6-fluoropyridin-2-yl)methyl)amino)-4H-benzo[e][1,2,4]thiadiazine 1,1-dioxide]	100 to 500 nM	
O=S1(=O)N=C(NCc2ncccc2F)Nc2c1ccc(Cl)c2Oc1cccc(Cl)c1Cl [Compound 1-50, 6-chloro-5-(2,3-dichlorophenoxy)-3-(((3-fluoropyridin-2-yl)methyl)amino)-4H-benzo[e][1,2,4]thiadiazine 1,1-dioxide]	< 100 nM	
O=S1(=O)N=C(NCc2ncccc2F)Nc2c1ccc(F)c2Oc1c(Cl)ccc2ccccc12 [Compound 1-34, 5-((2-chloronaphthalen-1-yl)oxy)-6-fluoro-3-(((3-fluoropyridin-2-yl)methyl)amino)-4H-benzo[e][1,2,4]thiadiazine 1,1-dioxide]	< 100 nM	
O=S1(=O)N=C(NCc2ncccc2F)Nc2c1ccc(F)c2Oc1ccc(F)cc1Cl [Compound 1-18, 5-(2-chloro-4-fluorophenoxy)-6-fluoro-3-(((3-fluoropyridin-2-yl)methyl)amino)-4H-benzo[e][1,2,4]thiadiazine 1,1-dioxide]	< 100 nM	
O=S1(=O)N=C(NCc2cc(F)ccc2F)Nc2c1cc(F)c(F)c2Cc1ccccc1Cl [Compound 4-10, 5-(2-chlorobenzyl)-3-((2,5-difluorobenzyl)amino)-6,7-difluoro-4H-benzo[e][1,2,4]thiadiazine 1,1-dioxide]	100 to 500 nM	
[2H]C([2H])(NC1=NS(=O)(=O)c2ccc(F)c(Oc3ccccc3Cl)c2N1)c1ccccc1 [Compound 1-44, 5-(2-chlorophenoxy)-6-fluoro-3-((phenylmethyl-d2)amino)-4H-benzo[e][1,2,4]thiadiazine 1,1-dioxide]	100 to 500 nM	
O=S1(=O)N=C(NCc2cccc(F)c2)Nc2c1cc(F)c(F)c2Cc1ccccc1Cl [Compound 4-12, 5-(2-chlorobenzyl)-6,7-difluoro-3-((3-fluorobenzyl)amino)-4H-benzo[e][1,2,4]thiadiazine 1,1-dioxide]	100 to 500 nM	
O=S1(=O)N=C(NCc2cccc(Cl)c2F)Nc2c1cc(F)c(F)c2Cc1ccccc1Cl [Compound 4-14, 3-((3-chloro-2-fluorobenzyl)amino)-5-(2-chlorobenzyl)-6,7-difluoro-4H-benzo[e][1,2,4]thiadiazine 1,1-dioxide]	100 to 500 nM	
